Test results as given in patent US20070212426A1, “Composition and method of retarding viral activity and reducing viral replication” (priority 2006, published 2007).
Read-outs that look alike come from different tables or passages of the source.

Experiments:
[1] = tested on: Influenza Virus A's Neuraminidase; assay: Neuraminidase activity of cell-free virus, 4-methylumbelliferyl N-acetylneuramic acid substrate
Text: The method of these experiments are well known in the art, however, in brief, cell free virus are mixed with an equal volume of the composition in Table 1 or Ascorbic Acid in another, at various concentrations, and any inhibitory activity is observed at various time points after the mixture. Spectrophotometer assay for Neuraminidase has been established in the laboratory at using 4-methylumbelliferyl N-acetylneuramic acid as a substrate in the cell free system.

[2] = tested on: human influenza A virus (VR-1520); assay type: cell-based; details: for output of Antigen to the control's output: Vero cells, control 245 Antigen units/ml

Q: Which results are given for `O=C1O[C@H]([C@@H](O)CO)C(O)=C1O` [ascorbic acid]?
A: Neuraminidase activity to the control's ([1]; 1000 microgram/ml): 90%; Neuraminidase activity to the control's ([1]; 2000 microgram/ml): 85%; Neuraminidase activity to the control's ([1]; 3000 microgram/ml): 80%; output of Antigen to the control's output ([2]; 50 micromoles): 35%; output of Antigen to the control's output ([2]; 100 micromoles): 45%; output of Antigen to the control's output ([2]; 250 micromoles): 41%; Influenza A virus antigen production in Vero cells (figure legend) ([2]; various concentrations, serum-free medium): marginal decrease
